In US20260250257A1, “ANTIBACTERIAL AND SYNERGISTIC ACTIVE COMPOUND AND USE THEREOF” (EAST CHINA UNIVERSITY OF SCIENCE AND TECHNOLOGY, priority 2023, published 2026):
Converted amounts (≈) assume the structure as drawn.

Assays:
Type in all cases: cell-based
[1] = system: ATCC13883 strain (Klebsiella pneumoniae); test: Checkerboard antibacterial synergistic activity test with polymyxin E (FIC); design: key: FIC≤0.5 synergy; 0.5–1 additive; 1–2 indifferent; ≥2 antagonism; conditions: combined with polymyxin E
Procedure, shortened: (§1)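 FIC values come from a microdilution checkerboard crossing polymyxin E against the test compound in MH medium, with uninoculated blanks included. Incubation lasts 16 h at 37° C. Scoring: synergy at FIC ≤0.5, additivity between 0.5 and 1, indifference between 1 and 2, antagonism at 2 or above.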

[2] = system: ATCC19606 strain (Acinetobacter baumannii); test: as above; design: key: FIC≤0.5 synergy; 0.5–1 additive; 1–2 indifferent; ≥2 antagonism; conditions: combined with polymyxin E
Procedure, shortened: as §1

[3] = system: ATCC9027 strain (Pseudomonas aeruginosa); test: as above; design: key: FIC≤0.5 synergy; 0.5–1 additive; 1–2 indifferent; ≥2 antagonism; conditions: combined with polymyxin E
Procedure, shortened: as §1

[4] = system: ATCC25922 strain (Escherichia coli); test: as above; design: key: FIC≤0.5 synergy; 0.5–1 additive; 1–2 indifferent; ≥2 antagonism; conditions: combined with polymyxin E
Procedure, shortened: as §1

[5] = system: ATCC13883 strain (Klebsiella pneumoniae); test: Broth microdilution, antibacterial activity of the compound used alone; conditions: for MIC: read-out: Antibacterial activity of the compound of Formula I, ATCC13883
Excerpt: (§2) The broth microdilution method was used to test the antibacterial effects of the compounds of the present invention against various Gram-negative bacterial strains when used alone.

[6] = system: ATCC19606 strain (Acinetobacter baumannii); test: as above; conditions: for MIC: read-out: Antibacterial activity of the compound of Formula I, ATCC19606
Excerpt: as §2

[7] = system: ATCC9027 strain (Pseudomonas aeruginosa); test: as above; conditions: for MIC: read-out: Antibacterial activity of the compound of Formula I, ATCC9027
Excerpt: as §2

[8] = system: ATCC25922 strain (Escherichia coli); test: as above; conditions: for MIC: read-out: Antibacterial activity of the compound of Formula I, ATCC25922
Excerpt: as §2

Compound	Synergistic activity (FIC value) ATCC13883 [1]	Synergistic activity (FIC value) ATCC19606 [2]	Synergistic activity (FIC value) ATCC9027 [3]	Synergistic activity (FIC value) ATCC25922 [4]	Antibacterial activity of the compound of Formula I, ATCC13883 [5] [µg/mL]	Antibacterial activity of the compound of Formula I, ATCC19606 [6] [µg/mL]	Antibacterial activity of the compound of Formula I, ATCC9027 [7] [µg/mL]	Antibacterial activity of the compound of Formula I, ATCC25922 [8] [µg/mL]	MIC [5] [µg/mL]	MIC [6] [µg/mL]	MIC [7] [µg/mL]	MIC [8] [µg/mL]
NC(N)=Nc1nc(-c2ccc3cccnc3c2)cs1 [Compound I-68]	1.25	0.51	1.25	1.25	256	256	256	256				
NC(N)=Nc1nc(-c2c(S(N)(=O)=O)csc2Cl)cs1 [Compound I-118]	0.19	1.25	1.25	1.25					256 (≈ 758 µM)	256 (≈ 758 µM)	256 (≈ 758 µM)	256 (≈ 758 µM)
NC(N)=Nc1nc(-c2ccc(Sc3ccccc3)cc2)cs1 [Compound I-107]	1.25	1.25	1.25	0.53					256 (≈ 784 µM)	256 (≈ 784 µM)	256 (≈ 784 µM)	256 (≈ 784 µM)
CC(C)c1ccccc1-c1coc(N=C(N)N)n1 [Compound I-15]	1.25	1.25	1.25	0.5	256	256	256	256				
CS(=O)(=O)Nc1cccc(-c2csc(N=C(N)N)n2)c1 [Compound I-32]	1.25	0.25	0.52	1.25	256	256	256	256				
CSc1ccccc1-c1csc(N=C(N)N)n1 [Compound I-26]	1.25	0.5	1.25	0.63	256	256	256	256				
NC(N)=Nc1nc(-c2cccc(NS(=O)(=O)c3ccccc3)c2)cs1 [Compound I-111]	0.25	0.5	1.25	0.63					256 (≈ 685 µM)	256 (≈ 685 µM)	256 (≈ 685 µM)	256 (≈ 685 µM)
NC(N)=Nc1nc(-c2cccc(NC(=O)NC3CC3)c2)cs1 [Compound I-31]	0.31	0.25	0.5	0.56	256	256	256	256				
Cc1[nH]c(N=C2NCCCN2)nc1-c1cc(C(C)(C)C)cc(C(C)(C)C)c1 [Compound I-162]	0.16	0.03	0.28	0.18	256	256	256	256				
